Values after ≈ are worked out from the molar mass of the structure shown. Values joined by “and” are separate entries in the source; they are usually repeats but may differ in a detail not shown here. Equal values may be shown once. Values belong to the compound of their own block, whether it stands above or below them.
Columns and labels:
[1] = Solubility determination in PBS pH 7.4; format: physicochemical; conditions: aqueous buffer, kinetic from dmso stock; PBS pH 7.4, 2 hours, 25° C.; the listed prodrug
Description: Stock solutions (10 mM DMSO, 30 μL) of each sample were placed into 96-well plate, along with 970 μL of PBS pH 7.4 were added into each vial of the cap-less solubility sample plate. The assay was performed in duplicate. A stir stick was added to each well and sealed using a molded PTFE/Silicone plug. Then the Solubility Sample plate was transferred to an Eppendorf Thermomixer Comfort plate shaker and shaken at 1100 RPM for 2 hours at 25° C. After completion the plugs and stir sticks were removed and the samples were transferred into a filter plate and filtered using a vacuum manifold. 5 μL aliquots of filtrate were taken and diluted with 5 μL DMSO and 490 μL of a 1:1 v/v mixture of H2O and acetonitrile. 200 μL of diluent was transferred to a new 96-well plate for LC-MS/MS analysis. The solution was analyzed and quantified against a standard of known concentration in DMSO using LC coupled with Mass spectral peak for identification and quantitation.

[2] = target: T1, CDK4-NanoLuc fusion with CCND1 in 293T or 293 cells (Homo sapiens, UniProt P11802); experiment: NanoBRET Target Engagement (TE) Intracellular Kinase Assay, CDK4/CCND1; format: cell-based; conditions: NanoBRET TE intracellular kinase assay, 2-hour incubation, read-out: NanoBRET-CDK4/D1 IC50
T1 construct: host or cells: 293T (ATCC CRL-3216) or 293 (ATCC CRL-1573)

pCDK2-CCNE1 proteins = pCDK2-CCNE1 proteins (Homo sapiens, UniProt P24941); experiment: Identification of covalent binding by intact mass spectrometry, with and without competitor PF-06873600; conditions: for Observed mass value of the covalent complex between compound and CDK2 protein: intact mass spectrometry after borohydride reduction, unmodified CDK2 34096-34097 Da; for Covalent complex formation with CDK2 protein (intact mass spectra after sodium borohydride reduction) / Binding pocket by competition: complex formation in presence of molar excess PF-06873600: pCDK2-CCNE1 1 μM, compound 1.5 μM; for Covalent complex formation with CDK2 protein (intact mass spectra after sodium borohydride reduction): 1 hour at room temperature or 37° C., no competitor; for Binding pocket by competition: complex formation in presence of molar excess PF-06873600: competitor PF-06873600 20 μM
Description: pCDK2-CCNE1 proteins (1 μM) were treated with a compound (1.5 μM) from Table 4 for 1 hour at room temperature or 37° C., with and without competitor molecule PF-06873600 (20 μM final concentration) as a specificity control. As used herein, the competitor molecule is
As used herein, the competitor molecule is 6-(difluoromethyl)-8-((1R,2R)-2-hydroxy-2-methylcyclopentyl)-2-((1-(methylsulfonyl)piperidin-4-yl)amino)pyrido[2,3-d]pyrimidin-7(8H)-one (PF-06873600). Reversible imines were captured by reductive amination with the addition of 5 mM sodium borohydride at room temperature for 5 min. Reduction reactions were quenched by diluting the sample in equal volume of 1% trifluoroacetic acid (v/v) in acetonitrile, then analyzed by LC-MS. Deconvoluted monoisotopic intensities of unmodified and compound-modified mass peaks were compared.
FIGS. 1A to 1P provide intact mass spectra for pCDK2-CCNE1 proteins after incubation with compounds of the present disclosure and subsequent sodium borohydride reduction. […] Further, FIGS. 1A to 1P each provide intact mass spectra following the incubation of pCDK2-CCNE1 proteins with a compound of the present disclosure both in the absence of a competitor molecule (i.e., PF-06873600, a molecule known to bind to and inhibit the function of CDK2); and in the presence of a significant stoichiometric excess of a competitor molecule PF-06873600.
FIGS. 2A to 2N provide intact mass spectra for pCDK2-CCNE1 proteins after incubation with compounds of the present disclosure and subsequent sodium borohydride reduction.

[3] = target: T2, CDK2-NanoLuc fusion with CCNE1 in 293T or 293 cells (Homo sapiens, UniProt P24941); experiment: NanoBRET Target Engagement (TE) Intracellular Kinase Assay, CDK2/CCNE1; format: cell-based; conditions: NanoBRET TE intracellular kinase assay, 2-hour incubation, read-out: NanoBRET-CDK2/E1 IC50
T2 construct: host or cells: 293T (ATCC CRL-3216) or 293 (ATCC CRL-1573)

[4] = target: T3, CDK1-NanoLuc fusion with CCNB1 in 293T or 293 cells (Homo sapiens, UniProt P06493); experiment: NanoBRET Target Engagement (TE) Intracellular Kinase Assay, CDK1/CCNB1; format: cell-based; conditions: NanoBRET TE intracellular kinase assay, 2-hour incubation, read-out: NanoBRET-CDK1/B1 IC50
T3 construct: host or cells: 293T (ATCC CRL-3216) or 293 (ATCC CRL-1573)
Summary of the method: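 IC50 derived by four-parameter logistic fit of DMSO-normalized acceptor/donor (610/450 nm) BRET ratio. Compound and Tracer K-10 were applied together for 2 h at 37° C to 293 or 293T cells transfected 24 h earlier with CDK1-NanoLuc fusion and cyclin B1.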

[5] = test system: Phospho-Rb Ser807/811 in OVCAR3 cells; experiment: OVCAR3 Phospho-Rb Ser807/811 HTRF assay; format: cell-based; conditions: Homo sapiens, OVCAR-3, 1 h, OVCAR3 cells, Phospho-Rb Ser807/811 HTRF, 1 hour incubation; read-out: pRb-OVCAR3 IC50
Description: Cells were trypsinized and resuspended in 1 mM hydroxyurea (Sigma; H8627), 90% RPMI and 10% fetal bovine serum. […] Dose response curve normalized to DMSO control was plotted using four-parameter logistic model for IC50 calculation.

T1 sequence (P11802 whole entry, the tested form may be a part): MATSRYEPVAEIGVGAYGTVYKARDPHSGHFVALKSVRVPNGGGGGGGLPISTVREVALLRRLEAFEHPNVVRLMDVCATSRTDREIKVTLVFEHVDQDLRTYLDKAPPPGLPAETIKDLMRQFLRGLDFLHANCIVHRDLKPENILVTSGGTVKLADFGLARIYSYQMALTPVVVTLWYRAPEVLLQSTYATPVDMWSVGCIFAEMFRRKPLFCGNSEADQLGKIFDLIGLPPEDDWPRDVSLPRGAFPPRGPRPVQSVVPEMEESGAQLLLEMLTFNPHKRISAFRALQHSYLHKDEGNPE
T1 sequence (P24385 whole entry partner, the tested form may be a part): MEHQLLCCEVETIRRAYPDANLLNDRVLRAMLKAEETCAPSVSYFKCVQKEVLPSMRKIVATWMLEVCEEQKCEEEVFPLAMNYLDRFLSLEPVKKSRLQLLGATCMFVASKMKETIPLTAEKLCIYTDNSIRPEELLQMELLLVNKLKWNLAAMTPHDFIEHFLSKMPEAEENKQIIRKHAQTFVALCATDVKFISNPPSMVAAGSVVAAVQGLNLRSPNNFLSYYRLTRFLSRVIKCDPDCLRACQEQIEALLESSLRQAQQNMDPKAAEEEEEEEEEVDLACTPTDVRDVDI
T3 sequence (P06493 whole entry, the tested form may be a part): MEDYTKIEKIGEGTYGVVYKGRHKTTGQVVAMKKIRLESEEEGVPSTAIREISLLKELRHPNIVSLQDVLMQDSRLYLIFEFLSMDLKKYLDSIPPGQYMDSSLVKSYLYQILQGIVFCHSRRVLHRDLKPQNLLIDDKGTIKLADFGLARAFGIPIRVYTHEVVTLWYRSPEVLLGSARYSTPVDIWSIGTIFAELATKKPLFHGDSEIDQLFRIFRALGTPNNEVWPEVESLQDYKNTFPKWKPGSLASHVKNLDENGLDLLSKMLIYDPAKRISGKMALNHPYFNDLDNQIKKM
T3 sequence (P14635 whole entry partner, the tested form may be a part): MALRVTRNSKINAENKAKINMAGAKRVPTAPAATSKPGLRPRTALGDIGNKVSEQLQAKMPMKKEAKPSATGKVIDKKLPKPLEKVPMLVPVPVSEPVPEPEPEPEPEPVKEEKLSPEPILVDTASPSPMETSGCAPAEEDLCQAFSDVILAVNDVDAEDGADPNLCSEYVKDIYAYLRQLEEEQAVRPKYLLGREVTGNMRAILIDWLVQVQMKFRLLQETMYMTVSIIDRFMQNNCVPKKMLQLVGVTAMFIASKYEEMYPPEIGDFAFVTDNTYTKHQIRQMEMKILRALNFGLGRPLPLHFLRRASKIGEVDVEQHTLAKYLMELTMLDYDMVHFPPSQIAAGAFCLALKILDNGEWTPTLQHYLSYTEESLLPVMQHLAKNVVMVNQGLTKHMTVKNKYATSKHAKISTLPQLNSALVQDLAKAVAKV

solubility at 2 h [1]: 246 µM (≈ 120 µg/mL)
Compound: CC/N=C/c1c(O)cc(OC)cc1OCC(=O)Nc1cc([C@H]2CC[C@@H](OC(=O)NC(C)C)C2)[nH]n1 [Compound 64c, (1R,3S)-3-(3-(2-(2-((E)-(ethylimino)methyl)-3-hydroxy-5-methoxyphenoxy)acetamido)-1H-pyrazol-5-yl)cyclopentyl isopropylcarbamate]

solubility at 2 h [1]: 6.7 µM (≈ 3.27 µg/mL)
Compound: COc1cc(O)c(/C=N/C(C)C)c(OCC(=O)Nc2cc([C@H]3C[C@@H](OC(=O)NC(C)C)C3)[nH]n2)c1 [Compound 223a, (1s,3s)-3-(3-(2-(3-hydroxy-2-((E)-(isopropylimino)methyl)-5-methoxyphenoxy)acetamido)-1H-pyrazol-5-yl)cyclobutyl isopropylcarbamate]

solubility at 2 h [1]: 68 µM (≈ 33.8 µg/mL)
Compound: Cc1cc(O)c(/C=N/C(C)C)c(OCC(=O)Nc2cc([C@H]3CC[C@@H](OC(=O)NC4(C)CC4)C3)[nH]n2)c1 [Compound 145a, (1R,3S)-3-(3-(2-(3-hydroxy-2-((E)-(isopropylimino)methyl)-5-methylphenoxy)acetamido)-1H-pyrazol-5-yl)cyclopentyl (1-methylcyclopropyl)carbamate]

solubility at 2 h [1]: 227 µM (≈ 117 µg/mL)
Compound: COc1cc(O)c(/C=N/C(C)C)c(OCC(=O)Nc2cc([C@H]3CC[C@@H](OC(=O)N(C)N(C)C)C3)[nH]n2)c1 [Compound 172a, (1R,3S)-3-(3-(2-(3-hydroxy-2-((E)-(isopropylimino)methyl)-5-methoxyphenoxy)acetamido)-1H-pyrazol-5-yl)cyclopentyl 1,2,2-trimethylhydrazine-1-carboxylate]

solubility at 2 h [1]: 34 µM (≈ 16.4 µg/mL)
Compound: CC(C)/N=C/c1c(O)cccc1OCC(=O)Nc1cc([C@H]2CC[C@@H](OC(=O)NC3(C)CC3)C2)[nH]n1 [Compound 82a, (1R,3S)-3-(3-(2-(3-hydroxy-2-((E)-(isopropylimino)methyl)phenoxy)acetamido)-1H-pyrazol-5-yl)cyclopentyl (1-methylcyclopropyl)carbamate]

solubility at 2 h [1]: 191 µM (≈ 98.5 µg/mL)
Compound: COc1cc(O)c(/C=N/C(C)C)c(OCC(=O)Nc2cc([C@H]3CC[C@@H](OC(=O)NC(C)(C)C)C3)[nH]n2)c1 [Compound 128a, (1R,3S)-3-(3-(2-(3-hydroxy-2-((E)-(isopropylimino)methyl)-5-methoxyphenoxy)acetamido)-1H-pyrazol-5-yl)cyclopentyl tert-butylcarbamate]

solubility at 2 h [1]: 215 µM (≈ 108 µg/mL)
Compound: COc1cc(O)c(/C=N/C(C)C)c(OCC(=O)Nc2cc([C@H]3CC[C@@H](OC(=O)NC(C)C)C3)[nH]n2)c1 [Compound 64a, (1R,3S)-3-(3-(2-(3-hydroxy-2-((E)-(isopropylimino)methyl)-5-methoxyphenoxy)acetamido)-1H-pyrazol-5-yl)cyclopentyl isopropylcarbamate]

solubility at 2 h [1]: 50 µM (≈ 25.7 µg/mL)
Compound: COc1cc(O)c(/C=N/C(C)C)c(OCC(=O)Nc2cc([C@H]3CC[C@@H](OC(=O)NC4(C)CC4)C3)[nH]n2)c1 [Compound 251a, (1R,3S)-3-(3-(2-(3-hydroxy-2-((E)-(isopropylimino)methyl)-5-methoxyphenoxy)acetamido)-1H-pyrazol-5-yl)cyclopentyl (1-methylcyclopropyl)carbamate]

solubility at 2 h [1]: 48 µM (≈ 24 µg/mL)
Compound: CC/N=C/c1c(O)cc(OC)cc1OCC(=O)Nc1cc([C@H]2CC[C@@H](OC(=O)NC3(C)CC3)C2)[nH]n1 [Compound 251c, (1R,3S)-3-(3-(2-(2-((E)-(ethylimino)methyl)-3-hydroxy-5-methoxyphenoxy)acetamido)-1H-pyrazol-5-yl)cyclopentyl (1-methylcyclopropyl)carbamate]

solubility at 2 h [1]: 149 µM (≈ 78.3 µg/mL)
Compound: COc1cc(O)c(/C=N/C(C)C)c2c1CC(C(=O)Nc1cc([C@H]3CC[C@@H](OC(=O)NC(C)(C)C)C3)[nH]n1)C2 (single isomer, unassigned) [Compound 283a, (1R,3S)-3-(3-((*)-5-hydroxy-4-((E)-(isopropylimino)methyl)-7-methoxy-2,3-dihydro-1H-indene-2-carboxamido)-1H-pyrazol-5-yl)cyclopentyl tert-butylcarbamate]

solubility at 2 h [1]: 253 µM (≈ 133 µg/mL)
Compound: COc1cc(O)c(/C=N/C(C)C)c2c1CC(C(=O)Nc1cc([C@H]3CC[C@@H](OC(=O)N(C)N(C)C)C3)n[nH]1)C2 (single isomer, unassigned) [Compound 284a, (1R,3S)-3-(5-((*)-5-hydroxy-4-((E)-(isopropylimino)methyl)-7-methoxy-2,3-dihydro-1H-indene-2-carboxamido)-1H-pyrazol-3-yl)cyclopentyl 1,2,2-trimethylhydrazine-1-carboxylate]

IC50 [2]: > 10000 nM | Observed mass value of the covalent complex between compound and CDK2 protein (pCDK2-CCNE1 proteins): 34588 Da | IC50 [3]: 24.5 nM | IC50 [4]: 70.2 nM | IC50 [5]: 161 nM
Compound: CC(C)NC(=O)O[C@@H]1CC[C@H](c2cc(NC(=O)COc3cccc(NS(C)(=O)=O)c3C=O)n[nH]2)C1 [Compound 49, (1R,3S)-3-{5-[2-(2-formyl-3-methanesulfonamidophenoxy)acetamido]-2H-pyrazol-3-yl}cyclopentyl N-isopropyl carbamate]

IC50 [2]: 4100 nM | Observed mass value of the covalent complex between compound and CDK2 protein (pCDK2-CCNE1 proteins): 34519 Da | IC50 [3]: 7.58 nM | IC50 [4]: 354 nM | IC50 [5]: 1150 nM
Compound: C#Cc1cccc(OCC(=O)Nc2cc([C@H]3CC[C@@H](OC(=O)NC(C)C)C3)[nH]n2)c1C=O [Compound 51, (1R,3S)-3-(3-(2-(3-ethynyl-2-formylphenoxy)acetamido)-1H-pyrazol-5-yl)cyclopentyl isopropylcarbamate]
Covalent complex formation with CDK2 protein (intact mass spectra after sodium borohydride reduction) (pCDK2-CCNE1 proteins): formed a covalent complex with CDK2 protein | Binding pocket by competition: complex formation in presence of molar excess PF-06873600 (pCDK2-CCNE1 proteins): bound to the same binding pocket of CDK2 as the competitor molecule PF-06873600

IC50 [2]: 3690 nM | Observed mass value of the covalent complex between compound and CDK2 protein (pCDK2-CCNE1 proteins; 2,2,2-trifluoroacetate): 34538-34539 Da and 34539 Da | IC50 [3]: 4.81 nM | IC50 [4]: 100 nM | IC50 [5]: 200 nM
Compound: COc1cc(O)c(C=O)c(CCC(=O)Nc2cc([C@H]3CC[C@@H](OC(=O)NC(C)C)C3)[nH]n2)c1 [Compound 22, (1R,3S)-3-(3-(3-(2-formyl-3-hydroxy-5-methoxyphenyl)propanamido)-1H-pyrazol-5-yl)cyclopentyl isopropylcarbamate 2,2,2-trifluoroacetate]
Covalent complex formation with CDK2 protein (intact mass spectra after sodium borohydride reduction) (pCDK2-CCNE1 proteins): formed a covalent complex with CDK2 protein | Binding pocket by competition: complex formation in presence of molar excess PF-06873600 (pCDK2-CCNE1 proteins): bound to the same binding pocket of CDK2 as the competitor molecule PF-06873600

IC50 [2]: > 10000 nM | Covalent complex formation with CDK2 protein (intact mass spectra after sodium borohydride reduction) (pCDK2-CCNE1 proteins): resulted in covalent complex formation | IC50 [3]: 8.63 nM | IC50 [4]: 49.7 nM | IC50 [5]: 382 nM
Compound: CNC(=O)O[C@@H]1CC[C@H](c2cc(NC(=O)c3cc(-c4cccc(O)c4C=O)nn3C)n[nH]2)C1 [Compound 50, (1R,3S)-3-{5-[5-(2-formyl-3-hydroxyphenyl)-2-methylpyrazole-3-amido]-2H-pyrazol-3-yl}cyclopentyl N-methylcarbamate; trifluoroacetic acid]

— patent US20250289789A1, “REVERSIBLE LYSINE COVALENT MODIFIERS OF CDK2 AND USES THEREOF” (Terremoto Biosciences, Inc., priority 2023, published 2025)
